The target in the assay is T1, GST-AMPKα2/ß1/γ1 complex (full-length human AMPKα2) (Homo sapiens, UniProt P54619+P54646+Q9Y478).
T1 construct: purchased Carna Biosciences 02-114; host or cells: baculovirus expression system
T1 sequence (P54646 whole entry): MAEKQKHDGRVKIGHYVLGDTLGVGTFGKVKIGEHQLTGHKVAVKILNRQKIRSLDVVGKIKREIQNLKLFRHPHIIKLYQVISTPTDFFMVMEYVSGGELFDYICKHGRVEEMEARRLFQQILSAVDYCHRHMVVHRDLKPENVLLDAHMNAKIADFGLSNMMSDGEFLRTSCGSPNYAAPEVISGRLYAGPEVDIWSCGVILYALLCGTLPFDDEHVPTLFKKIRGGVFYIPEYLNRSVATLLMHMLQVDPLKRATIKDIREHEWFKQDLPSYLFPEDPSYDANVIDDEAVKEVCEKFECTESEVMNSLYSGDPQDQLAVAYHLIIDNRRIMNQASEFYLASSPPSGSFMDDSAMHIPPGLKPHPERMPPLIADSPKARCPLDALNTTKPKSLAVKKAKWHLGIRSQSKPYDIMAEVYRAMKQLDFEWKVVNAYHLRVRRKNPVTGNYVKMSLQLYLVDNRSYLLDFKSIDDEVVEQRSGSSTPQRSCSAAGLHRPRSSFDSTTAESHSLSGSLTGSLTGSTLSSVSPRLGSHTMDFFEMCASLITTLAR
T1 sequence (Q9Y478 whole entry partner): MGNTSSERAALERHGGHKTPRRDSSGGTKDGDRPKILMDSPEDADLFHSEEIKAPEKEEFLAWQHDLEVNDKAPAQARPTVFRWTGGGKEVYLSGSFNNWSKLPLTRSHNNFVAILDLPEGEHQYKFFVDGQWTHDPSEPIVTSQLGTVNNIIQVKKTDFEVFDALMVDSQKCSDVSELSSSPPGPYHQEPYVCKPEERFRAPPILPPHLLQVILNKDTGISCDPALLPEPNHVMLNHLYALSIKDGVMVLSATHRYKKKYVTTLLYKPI
T1 sequence (P54619 whole entry partner): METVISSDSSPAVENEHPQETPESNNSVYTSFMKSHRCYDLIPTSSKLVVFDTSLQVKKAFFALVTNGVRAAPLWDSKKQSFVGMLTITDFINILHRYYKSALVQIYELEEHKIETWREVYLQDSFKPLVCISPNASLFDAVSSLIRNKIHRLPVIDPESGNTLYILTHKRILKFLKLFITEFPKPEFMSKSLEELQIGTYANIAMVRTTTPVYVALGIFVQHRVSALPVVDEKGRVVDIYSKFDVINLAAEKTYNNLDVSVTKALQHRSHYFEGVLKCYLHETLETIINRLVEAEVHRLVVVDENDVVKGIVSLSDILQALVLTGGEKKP
Description: AMPK high ATP assay (TR-FRET-based AMPK activity inhibition assay). The class given is biochemical. The conditions noted are these: ATP concentration of 1 mM; median; read-out: AMPK high ATP assay IC50 [mol/l] (median). How it is done: AMPK inhibitory activity of compounds of the present invention at an ATP concentration of 1 mM was quantified employing the TR-FRET-based AMPK activity inhibition assay as described in the following paragraphs.
Recombinant fusion protein of N-terminal Glutathion-S-Transferase (GST) and full-length human AMPKα2 [1-552(end) amino acids of accession number NP_006243.2] co-expressed with GST-PRKAB1 [1-270(end) amino acids of accession number NP_006244.2] and PRKAG1 [1-331(end) amino acids of accession number NP_002724.1] using a baculovirus expression system, purified as GST-AMPKα2/ß1/γ1 complex by using glutathione sepharose chromatography, activated with His-tagged CaMKK1 and subsequently purified by using glutathione sepharose chromatography, was purchased from Carna Biosciences (product number 02-114) and used as kinase. As substrate for the kinase reaction biotinylated peptide biotin-Ahx-HMRSAMSFAEPG (C-terminus in amide form) was used which can be purchased e.g. form the company Biosyntan (Berlin-Buch, Germany). For the assay 50 nl of a 100 fold concentrated solution of the test compound in DMSO was pipetted into either a black low volume 384 well microtiter plate or a black 1536 well microtiter plate (both Greiner Bio-One, Frickenhausen, Germany), 2 μl of a solution of GST-AMPKα2/ß1/γ1 in aqueous assay buffer [50 mM Hepes pH 7.5, 10 mM MgCl2, 5 mM β-glycerophosphate, 2.5 mM dithiothreitol (DTT), 0.5 mM EGTA, 0.01% (w/v) bovine γ-globulin (Sigma-Aldrich, #G5009), 0.01% (v/v) Triton X-100 (Sigma-Aldrich, #T9284)] were added and the mixture was incubated for 15 min at 22° C. to allow pre-binding of the test compounds to the enzyme before the start of the kinase reaction. Then the kinase reaction was started by the addition of 3 μl of a solution of adenosine-tri-phosphate (ATP, 1.67 mM=>final conc. in the 5 μl assay volume is 1 mM), adenosine-mono-phosphate (AMP, 3.33 μM=>final conc. in the 5 μl assay volume is 2 μM), and substrate (0.83 μM=>final conc. in the 5 μl assay volume is 0.5 μM) in assay buffer and the resulting mixture was incubated for a reaction time of 30 min at 22° C. The concentration of GST-AMPK α2/ß1/γ1 was adjusted depending of the activity of the enzyme lot and was chosen appropriate to have the assay in the linear range, a typical concentration was 0.08 nM. The reaction was stopped by the addition of 3 μl of a solution of TR-FRET detection reagents (0.2 μM streptavidine-XL665 [Cisbio Bioassays, Codolet, France] and 3.33 nM anti-phosho-Serine antibody [Merck Millipore, “STK antibody”, cat. #35-002] and 3.33 nM anti mouse IgG-Tb cryptate, a Terbium-cryptate labelled anti-mouse IgG antibody [Cisbio Bioassays, Codolet, France] in an aqueous EDTA-solution (166.7 mM EDTA, 0.06 (w/v) bovine serum albumin in 50 mM HEPES pH 7.5).
The resulting mixture was incubated 1 h at 22° C. to allow the formation of complex between the phosphorylated biotinylated peptide and the detection reagents. Subsequently the amount of phosphorylated substrate was evaluated by measurement of the resonance energy transfer from the Tb-cryptate to the streptavidine-XL665. Therefore, the fluorescence emissions at 620 nm and 665 nm after excitation at 350 nm was measured in a TR-FRET reader, e.g. a Pherastar FS (BMG Labtechnologies, Offenburg, Germany) or a Viewlux (Perkin-Elmer). The ratio of the emissions at 665 nm and at […] was taken as the measure for the amount of phosphorylated substrate. The data were normalised (enzyme reaction without inhibitor=0 inhibition, all other assay components but no enzyme=100% inhibition).
A general note: In TR-FRET formats the signal depends on donor and acceptor labels being close together.
Take `CC1=C(C#N)C(c2cc3c(NC(=O)C45C6C7C4C4C5C6C74C(=O)N4CCN(C)CC4)n[nH]c3c(C)c2F)C(C#N)=C(C)N1C` (centres unmarked) [Example 24, N-[5-(3,5-dicyano-1,2,6-trimethyl-1,4-dihydropyridin-4-yl)-6-fluoro-7-methyl-1H-indazol-3-yl]-4-(4-methylpiperazine-1-carbonyl)cubane-1-carboxamide]: the IC50 turned out to be 59.7 nM.
Next, `CC1=C(C#N)C(c2cc3c(NC(=O)c4c(F)cccc4F)n[nH]c3c(C)c2F)C(C#N)=C(C)N1C` [Example 7, N-[5-(3,5-dicyano-1,2,6-trimethyl-1,4-dihydropyridin-4-yl)-6-fluoro-7-methyl-1H-indazol-3-yl]-2,6-difluorobenzamide]: 19.6 nM; `CC1=C(C#N)C(c2cc3c(NC(=O)c4ccccc4Cl)n[nH]c3c(I)c2F)C(C#N)=C(C)N1C` [Example 2, 2-chloro-N-[5-(3,5-dicyano-1,2,6-trimethyl-1,4-dihydropyridin-4-yl)-6-fluoro-7-iodo-1H-indazol-3-yl]benzamide]: 13 nM; `CC1=C(C#N)C(c2cc3c(NC(=O)c4c(F)cccc4Cl)n[nH]c3c(C)c2F)C(C#N)=C(C)N1C` [Example 11, 2-chloro-N-[5-(3,5-dicyano-1,2,6-trimethyl-1,4-dihydropyridin-4-yl)-6-fluoro-7-methyl-1H-indazol-3-yl]-6-fluorobenzamide]: 8.9 nM.
`CCc1c(F)c(C2C(C#N)=C(C)N(C)C(C)=C2C#N)cc2c(NC(=O)c3ccccc3Cl)n[nH]c12` [Example 31, 2-chloro-N-[5-(3,5-dicyano-1,2,6-trimethyl-1,4-dihydropyridin-4-yl)-7-ethyl-6-fluoro-1H-indazol-3-yl]benzamide]: the IC50 turned out to be 71.5 nM.
With `CC1=C(C#N)C(c2cc3c(NC(=O)Cc4ccc(C)nc4)n[nH]c3c(C)c2F)C(C#N)=C(C)N1C` [Example 14, N-[5-(3,5-dicyano-1,2,6-trimethyl-1,4-dihydropyridin-4-yl)-6-fluoro-7-methyl-1H-indazol-3-yl]-2-(6-methylpyridin-3-yl)acetamide], the IC50 is 21.5 nM.
For `CCc1c(F)c(C2C(C#N)=C(C)N(C)C(C)=C2C#N)cc2c(NC(=O)c3cc(C)nn3CC)n[nH]c12` [Example 30, N-[5-(3,5-dicyano-1,2,6-trimethyl-1,4-dihydropyridin-4-yl)-7-ethyl-6-fluoro-1H-indazol-3-yl]-1-ethyl-3-methyl-1H-pyrazole-5-carboxamide] the value was 68.6 nM; for `CC1=C(C#N)C(c2cc3c(NC(=O)C45C6C7C4C4C5C6C74C(=O)N4CCC4)n[nH]c3c(C)c2F)C(C#N)=C(C)N1C` (centres unmarked) [Example 23, 4-(azetidine-1-carbonyl)-N-[5-(3,5-dicyano-1,2,6-trimethyl-1,4-dihydropyridin-4-yl)-6-fluoro-7-methyl-1H-indazol-3-yl]cubane-1-carboxamide], 105 nM; for `CC1=C(C#N)C(c2cc3c(NC(=O)c4ccc(OCCN5CCCC5)cc4Cl)n[nH]c3c(C)c2F)C(C#N)=C(C)N1C` [Example 20, 2-chloro-N-[5-(3,5-dicyano-1,2,6-trimethyl-1,4-dihydropyridin-4-yl)-6-fluoro-7-methyl-1H-indazol-3-yl]-4-[2-(pyrrolidin-1-yl)ethoxy]benzamide], 0.66 nM.
Consider `CC1=C(C#N)C(c2cc3c(NC(=O)c4cnn(CC(C)(C)O)c4C(F)(F)F)n[nH]c3c(C)c2F)C(C#N)=C(C)N1C` [Example 18, N-[5-(3,5-dicyano-1,2,6-trimethyl-1,4-dihydropyridin-4-yl)-6-fluoro-7-methyl-1H-indazol-3-yl]-1-(2-hydroxy-2-methylpropyl)-5-(trifluoromethyl)-1H-pyrazole-4-carboxamide], for which the IC50 came out at 45.4 nM.
For `C=Cc1c(F)c(C2C(C#N)=C(C)N(C)C(C)=C2C#N)cc2c(NC(=O)c3cc(C)nn3CC)n[nH]c12` [Example 25, N-[5-(3,5-dicyano-1,2,6-trimethyl-1,4-dihydropyridin-4-yl)-7-ethenyl-6-fluoro-1H-indazol-3-yl]-1-ethyl-3-methyl-1H-pyrazole-5-carboxamide], the IC50 came out at 152 nM.
As to `CCn1cc(C(=O)Nc2n[nH]c3c(C)c(F)c(C4C(C#N)=C(C)N(C)C(C)=C4C#N)cc23)c(C)n1` [Example 12, N-[5-(3,5-dicyano-1,2,6-trimethyl-1,4-dihydropyridin-4-yl)-6-fluoro-7-methyl-1H-indazol-3-yl]-1-ethyl-3-methyl-1H-pyrazole-4-carboxamide], the IC50 was determined as 15.7 nM.
Turning to `CC1=C(C#N)C(c2cc3c(NC(=O)c4cnn(CCN5CCCC5)c4C(F)(F)F)n[nH]c3c(C)c2F)C(C#N)=C(C)N1C` [Example 19, N-[5-(3,5-dicyano-1,2,6-trimethyl-1,4-dihydropyridin-4-yl)-6-fluoro-7-methyl-1H-indazol-3-yl]-1-[2-(pyrrolidin-1-yl)ethyl]-5-(trifluoromethyl)-1H-pyrazole-4-carboxamide], the IC50 stood at 37.6 nM.
Next, `CC1=C(C#N)C(c2cc3c(NC(=O)c4cn(CCN5CCCC5)nc4C(F)(F)F)n[nH]c3c(C)c2F)C(C#N)=C(C)N1C` [Example 16, N-[5-(3,5-dicyano-1,2,6-trimethyl-1,4-dihydropyridin-4-yl)-6-fluoro-7-methyl-1H-indazol-3-yl]-1-[2-(pyrrolidin-1-yl)ethyl]-3-(trifluoromethyl)-1H-pyrazole-4-carboxamide]: 5.71 nM.

(Values after patent US20210047297A1, “4-(3-AMINO-6-FLUORO-1H-INDAZOL-5-YL)-1,2,6-TRIMETHYL-1,4-DIHYDROPYRIDINE-3,5-DIC ARBONITRILE COMPOUNDS FOR TREATING HYPERPROLIFERATIVE DISORDERS” (Bayer Pharma Aktiengesellschaft, priority 2018, published 2021).)
